In data set [1] the test system is advanced solid malignancies with PIK3CA alterations. More on the design: method as in PMID 29401002. To be noted: single-agent alpelisib, once daily; first-in-human phase I; cited from earlier work.
The nature of data set [2]: Pharmacokinetics of alpelisib and capecitabine in plasma (LC-MS/MS, non-compartmental). The format is in vivo, human. The conditions noted are these: for half-life / AUC(0-t) / Cmax: mean (range); for AUC(0-t): read-out: AUC0-6h; for AUC: range across dose escalation (dose levels 0 to 2), read-out: area under the concentration-time-curve (AUC). How it is done:
The pharmacokinetic (PK) analysis was conducted in all patients who received at least one dose of alpelisib and capecitabine combination therapy. Blood samples were collected at specified time points, including pre-dose, 1, 2, 4, and 6 hours post-dose, on day 1 of cycle 1. Measurements of alpelisib and capecitabine were carried out with a validated LC-MS/MS assay. PK parameters, including maximum plasma concentration (Cmax), time to reach maximum plasma concentration (tmax), area under the plasma concentration-time curve (AUC), and elimination half-life (t1/2), were calculated using non-compartmental methods. […] The data were presented as the mean (range) and standard deviation (SD).

Details of data set [3]: method as in PMID 21332655. To be noted: monotherapy, salvage regimens in Korea, retrospective data; cited from earlier work.
Setting [4] is: human, plasma, oral, Dose level 0 (n=3): alpelisib 200mg+capecitabine 1000mg/m^2, day 1 of cycle 1.
The mark [5] stands for this setting: human, plasma, oral, Dose level 0 (n=3): alpelisib 200mg+capecitabine 1000mg/m^2, plasma, day 1 of cycle 1.
[6] abbreviates: human, plasma, oral, Dose level 1 (n=6): alpelisib 300mg+capecitabine 1000mg/m^2, day 1 of cycle 1.
The mark [7] stands for this setting: human, plasma, oral, Dose level 1 (n=6): alpelisib 300mg+capecitabine 1000mg/m^2, plasma, day 1 of cycle 1.
The mark [8] stands for this setting: human, plasma, oral, across dose levels 0, 1 and 2, read-out: time to reach peak concentration (tmax).

What is called half-life is how long it takes for the measured level to halve. A word on the Cmax: it is the maximum level reached in the sampled fluid or tissue.

Like-named read-outs stand apart in the source and are kept apart here.

As for `Cc1nc(NC(=O)N2CCC[C@H]2C(N)=O)sc1-c1ccnc(C(C)(C)C(F)(F)F)c1` [alpelisib], in data set [1], the MTD is recorded as 400 mg. For the same compound, the Tmax in data set [2] (Dose level 0 (n=3): alpelisib 200mg+capecitabine 1000mg/m^2, day 1 of cycle 1, ± SD) was 2 ± 0.6 h; in data set [2] (Dose level 1 (n=6): alpelisib 300mg+capecitabine 1000mg/m^2, day 1 of cycle 1, ± SD), 4 ± 1.8 h; in data set [2] (setting [8]), 2 to 4 h. Also, in data set [2] (co-administration in patients), the “Alpelisib exposure (Cmax and AUC0-12) with concomitant capecitabine” value is reported as “unaffected”. Besides, the half-life in data set [2] (setting [4]) is 6.5 h; in data set [2] (setting [6]) it was 9.29 h. The AUC(0-t) in data set [2] (setting [4]) came out at 4930 ng·h/mL; in data set [2] (setting [6]), 5070 ng·h/mL. In addition, the Cmax in data set [2] (setting [5]) was found to be 1170 ng/mL; in data set [2] (setting [7]), 1240 ng/mL. In addition, the AUC in data set [2] (human, plasma, oral) was in the range of 4930 to 8190 ng·h/mL.
As for `CCCCCOC(=O)Nc1nc(=O)n([C@@H]2O[C@H](C)[C@@H](O)[C@H]2O)cc1F` [capecitabine], the disease control rate in data set [3] was 60%. In addition, the half-life is 0.89 h in data set [2] (setting [4]) and 0.63 h in data set [2] (setting [6]). Besides, the figures for the AUC(0-t) in data set [2] (setting [4]) and in data set [2] (setting [6]) were 2670 ng·h/mL and 6000 ng·h/mL, respectively. Moreover, the Cmax is 2500 ng/mL in data set [2] (setting [5]) and 4160 ng/mL in data set [2] (setting [7]). Also, the Tmax was 2 h in data set [2] (human, plasma, oral, Dose level 1 (n=6): alpelisib 300mg+capecitabine 1000mg/m^2, day 1 of cycle 1, ± SD, read-out: tmax) and 1 to 2 h in data set [2] (setting [8]). In data set [2] (human, plasma, oral), the AUC fell in the range of 2670 to 8710 ng·h/mL.

These data come from article PMC11272611, “Phase Ib and pharmacokinetics study of alpelisib, a PIK3CA inhibitor, and capecitabine in patients with advanced solid tumors” (Frontiers in Oncology, 2024).
